Legend:
Rhipicephalus sanguineus = experiment: In vitro contact activity against adult ticks (coated vial), R. sanguineus; settings: for mortality at 0.006 µM: Trial 3, dose 0.006 μM; for mortality at 0.024 µM: Trial 3, dose 0.024 μM; for mortality at 0.098 µM: Trial 3, dose 0.098 μM; for mortality at 0.39 µM: Trial 3, dose 0.39 μM; for mortality at 1.56 µM: Trial 3, dose 1.56 μM; for mortality at 6.25 µM: Trial 3, dose 6.25 μM; for mortality at 25 µM: Trial 3, dose 25 μM; for mortality at 100 µM: Trial 3, dose 100 μM
Method: Rhipicephalus sanguineus, Dermacentor variabilis, Amblyomma americanum, (Ecto Services, Inc., Henderson, N.C.) and Ixodes scapularis (Oklahoma State University, Stillwater, Okla.) aged between 2-4 weeks post molt were held in an environmental chamber at 24° C., 80% humidity with 12-hour light/dark cycles.
For tick assays, vial caps were pre-drilled with a single hole in the center of each cap to allow air exchange. A filter paper (Whatman Grade 540 2.1 cm) was placed in the lid of each vial. An aliquot from each compound stock was added to an acetone/triton solution to achieve the desired top doses for the study. Serial dilutions were conducted from the top dose (i.e. 100 ppm) to achieve the desired titration range for EC50 and EC90 determination. For R. sanguineus, D. variabilis, and A. americanum, the final DMSO concentration in each test vial was 0.5%. For I. scapularis, compounds were solubilized directly in an acetone/triton solution due to I. scapularis' sensitivity to DMSO. A 459 μL aliquot of each compound formulation was transferred to a vial containing a Whatman Grade 540 2.1 cm filter paper. Vials were immediately placed on an unheated roller unit to allow for an even coating of the vial walls. After vials were coated, 41 μL of each compound formulation was added to the filter paper embedded in each vial cap. Each cap was allowed to dry. The vials were loosely capped and allowed to dry for a minimum of four hours in a chemical fume hood.
Compounds tested were: the C1 racemate, C1 (R) enantiomer, and the C1 (S) enantiomer. For Trial 3, the C1 (R) enantiomer and the C1 (S) enantiomer were further chiral purified to achieve >99% purity.
Ten adult ticks were added to each vial and held at 24° C., 80% humidity with 12-hour light/dark cycles. Adult ticks were assessed for percent mortality at various time points between 2 hours and 48 hours post infestation. Ticks were stimulated on a heated roller unit and evaluated. Ticks showing no movement, or very slow and uncoordinated movement were noted as dead.

Ctenocephalides felis = experiment: In vitro ingestion activity against fleas (artificial feeding, bovine blood); settings: for mortality at 0.003 ppm: Trial 3, dose 0.003 ppm; for mortality at 0.012 ppm: Trial 3, dose 0.012 ppm; for mortality at 0.049 ppm: Trial 3, dose 0.049 ppm; for mortality at 0.2 ppm: Trial 3, dose 0.20 ppm; for mortality at 0.78 ppm: Trial 3, dose 0.78 ppm; for mortality at 3.125 ppm: Trial 3, dose 3.125 ppm; for mortality at 12.5 ppm: Trial 3, dose 12.5 ppm; for mortality at 50 ppm: Trial 3, dose 50 ppm
Method: Ctenocephalides felis (Avista Pharma, Inc., RTP, NC), 1-7days post hatch, held in an environmental chamber at 24° C., 85% humidity.
For flea ingestion tests, serial dilutions of the compound stock were performed using DMSO to achieve the desired range for EC50 and EC90 determination. An aliquot of each compound dilution was added to organic bovine blood with a final DMSO concentration of 0.5% and placed in an artificial feeding container.
Compounds tested were C1 racemate, the C1 (R) enantiomer, and the C1 (S) enantiomer. For Trial 3, the C1 (R) enantiomer and the C1 (S) enantiomer were further chiral purified to achieve >99% purity.
For both contact and ingestion assays, ten newly emerged unfed adult fleas, 0-7 days old Ctenocephalides felis, from a laboratory colony, were aspirated into each vial or cage. The test vials for contact assays were held in an environmental chamber at 24° C., 80% humidity with light/dark cycles (12 hours each). The cages for flea ingestion assays were held in a temperature-controlled artificial feeding apparatus to allow continual access to organic bovine blood containing the desired concentration of compound. Fresh aliquots of compound-spiked bovine blood were provided daily for the duration of the study.
Fleas were evaluated for percent mortality at various time points between 2 hours and 48 hours post infestation. Fleas showing normal movement and/or jumping ability were considered viable and those showing no movement after tapping the vials were scored as dead.

Compound: O=C(CC(F)(F)F)N1CC2(C1)OCc1cc(C3=NS[C@@](c4cc(Cl)c(F)c(Cl)c4)(C(F)(F)F)C3)ccc12 [C1 (S) enantiomer, (S)-1-[6-[5-(3,5-dichloro-4-fluoro-phenyl)-5-(trifluoromethyl)-4H-isothiazol-3-yl]spiro[1H-isobenzofuran-3,3′-azetidine]-1′-yl]-3,3,3-trifluoro-propan-1-one]
- mortality at 0.006 µM (Rhipicephalus sanguineus; 2 h, Rep1): 0%
- mortality at 0.006 µM (Rhipicephalus sanguineus; 2 h, Rep2): 0%
- mortality at 0.024 µM (Rhipicephalus sanguineus; 2 h, Rep1): 0%
- mortality at 0.024 µM (Rhipicephalus sanguineus; 2 h, Rep2): 0%
- mortality at 0.098 µM (Rhipicephalus sanguineus; 2 h, Rep1): 0%
- mortality at 0.098 µM (Rhipicephalus sanguineus; 2 h, Rep2): 0%
- mortality at 0.39 µM (Rhipicephalus sanguineus; 2 h, Rep1): 0%
- mortality at 0.39 µM (Rhipicephalus sanguineus; 2 h, Rep2): 0%
- mortality at 1.56 µM (Rhipicephalus sanguineus; 2 h, Rep1): 0%
- mortality at 1.56 µM (Rhipicephalus sanguineus; 2 h, Rep2): 0%
- mortality at 6.25 µM (Rhipicephalus sanguineus; 2 h, Rep1): 0%
- mortality at 6.25 µM (Rhipicephalus sanguineus; 2 h, Rep2): 0%
- mortality at 25 µM (Rhipicephalus sanguineus; 2 h, Rep1): 0%
- mortality at 25 µM (Rhipicephalus sanguineus; 2 h, Rep2): 0%
- mortality at 100 µM (Rhipicephalus sanguineus; 2 h, Rep1): 50%
- mortality at 100 µM (Rhipicephalus sanguineus; 2 h, Rep2): 10%
- mortality at 0.006 µM (Rhipicephalus sanguineus; 6 h, Rep1): 0%
- mortality at 0.006 µM (Rhipicephalus sanguineus; 6 h, Rep2): 0%
- mortality at 0.024 µM (Rhipicephalus sanguineus; 6 h, Rep1): 0%
- mortality at 0.024 µM (Rhipicephalus sanguineus; 6 h, Rep2): 0%
- mortality at 0.098 µM (Rhipicephalus sanguineus; 6 h, Rep1): 0%
- mortality at 0.098 µM (Rhipicephalus sanguineus; 6 h, Rep2): 0%
- mortality at 0.39 µM (Rhipicephalus sanguineus; 6 h, Rep1): 0%
- mortality at 0.39 µM (Rhipicephalus sanguineus; 6 h, Rep2): 0%
- mortality at 1.56 µM (Rhipicephalus sanguineus; 6 h, Rep1): 10%
- mortality at 1.56 µM (Rhipicephalus sanguineus; 6 h, Rep2): 0%
- mortality at 6.25 µM (Rhipicephalus sanguineus; 6 h, Rep1): 80%
- mortality at 6.25 µM (Rhipicephalus sanguineus; 6 h, Rep2): 60%
- mortality at 25 µM (Rhipicephalus sanguineus; 6 h, Rep1): 90%
- mortality at 25 µM (Rhipicephalus sanguineus; 6 h, Rep2): 100%
- mortality at 100 µM (Rhipicephalus sanguineus; 6 h, Rep1): 100%
- mortality at 100 µM (Rhipicephalus sanguineus; 6 h, Rep2): 100%
- mortality at 0.006 µM (Rhipicephalus sanguineus; 12 h, Rep1): 0%
- mortality at 0.006 µM (Rhipicephalus sanguineus; 12 h, Rep2): 0%
- mortality at 0.024 µM (Rhipicephalus sanguineus; 12 h, Rep1): 0%
- mortality at 0.024 µM (Rhipicephalus sanguineus; 12 h, Rep2): 0%
- mortality at 0.098 µM (Rhipicephalus sanguineus; 12 h, Rep1): 0%
- mortality at 0.098 µM (Rhipicephalus sanguineus; 12 h, Rep2): 0%
- mortality at 0.39 µM (Rhipicephalus sanguineus; 12 h, Rep1): 10%
- mortality at 0.39 µM (Rhipicephalus sanguineus; 12 h, Rep2): 10%
- mortality at 1.56 µM (Rhipicephalus sanguineus; 12 h, Rep1): 40%
- mortality at 1.56 µM (Rhipicephalus sanguineus; 12 h, Rep2): 50%
- mortality at 6.25 µM (Rhipicephalus sanguineus; 12 h, Rep1): 100%
- mortality at 6.25 µM (Rhipicephalus sanguineus; 12 h, Rep2): 100%
- mortality at 25 µM (Rhipicephalus sanguineus; 12 h, Rep1): 100%
- mortality at 25 µM (Rhipicephalus sanguineus; 12 h, Rep2): 100%
- mortality at 100 µM (Rhipicephalus sanguineus; 12 h, Rep1): 100%
- mortality at 100 µM (Rhipicephalus sanguineus; 12 h, Rep2): 100%
- mortality at 0.003 ppm (Ctenocephalides felis; 6 h, Rep1): 0%
- mortality at 0.003 ppm (Ctenocephalides felis; 6 h, Rep2): 0%
- mortality at 0.012 ppm (Ctenocephalides felis; 6 h, Rep1): 0%
- mortality at 0.012 ppm (Ctenocephalides felis; 6 h, Rep2): 0%
- mortality at 0.049 ppm (Ctenocephalides felis; 6 h, Rep1): 0%
- mortality at 0.049 ppm (Ctenocephalides felis; 6 h, Rep2): 0%
- mortality at 0.2 ppm (Ctenocephalides felis; 6 h, Rep1): 10%
- mortality at 0.2 ppm (Ctenocephalides felis; 6 h, Rep2): 20%
- mortality at 0.78 ppm (Ctenocephalides felis; 6 h, Rep1): 80%
- mortality at 0.78 ppm (Ctenocephalides felis; 6 h, Rep2): 70%
- mortality at 3.125 ppm (Ctenocephalides felis; 6 h, Rep1): 100%
- mortality at 3.125 ppm (Ctenocephalides felis; 6 h, Rep2): 60%
- mortality at 12.5 ppm (Ctenocephalides felis; 6 h, Rep1): 100%
- mortality at 12.5 ppm (Ctenocephalides felis; 6 h, Rep2): 100%
- mortality at 50 ppm (Ctenocephalides felis; 6 h, Rep1): 100%
- mortality at 50 ppm (Ctenocephalides felis; 6 h, Rep2): 100%
- mortality at 0.003 ppm (Ctenocephalides felis; 24 h, Rep1): 0%
- mortality at 0.003 ppm (Ctenocephalides felis; 24 h, Rep2): 0%
- mortality at 0.012 ppm (Ctenocephalides felis; 24 h, Rep1): 0%
- mortality at 0.012 ppm (Ctenocephalides felis; 24 h, Rep2): 0%
- mortality at 0.049 ppm (Ctenocephalides felis; 24 h, Rep1): 20%
- mortality at 0.049 ppm (Ctenocephalides felis; 24 h, Rep2): 10%
- mortality at 0.2 ppm (Ctenocephalides felis; 24 h, Rep1): 10%
- mortality at 0.2 ppm (Ctenocephalides felis; 24 h, Rep2): 50%
- mortality at 0.78 ppm (Ctenocephalides felis; 24 h, Rep1): 100%
- mortality at 0.78 ppm (Ctenocephalides felis; 24 h, Rep2): 90%
- mortality at 3.125 ppm (Ctenocephalides felis; 24 h, Rep1): 100%
- mortality at 3.125 ppm (Ctenocephalides felis; 24 h, Rep2): 80%
- mortality at 12.5 ppm (Ctenocephalides felis; 24 h, Rep1): 100%
- mortality at 12.5 ppm (Ctenocephalides felis; 24 h, Rep2): 100%
- mortality at 50 ppm (Ctenocephalides felis; 24 h, Rep1): 100%
- mortality at 50 ppm (Ctenocephalides felis; 24 h, Rep2): 100%
- mortality at 0.003 ppm (Ctenocephalides felis; 48 h, Rep1): 0%
- mortality at 0.003 ppm (Ctenocephalides felis; 48 h, Rep2): 0%
- mortality at 0.012 ppm (Ctenocephalides felis; 48 h, Rep1): 0%
- mortality at 0.012 ppm (Ctenocephalides felis; 48 h, Rep2): 0%
- mortality at 0.049 ppm (Ctenocephalides felis; 48 h, Rep1): 20%
- mortality at 0.049 ppm (Ctenocephalides felis; 48 h, Rep2): 20%
- mortality at 0.2 ppm (Ctenocephalides felis; 48 h, Rep1): 30%
- mortality at 0.2 ppm (Ctenocephalides felis; 48 h, Rep2): 70%
- mortality at 0.78 ppm (Ctenocephalides felis; 48 h, Rep1): 100%
- mortality at 0.78 ppm (Ctenocephalides felis; 48 h, Rep2): 90%
- mortality at 3.125 ppm (Ctenocephalides felis; 48 h, Rep1): 100%
- mortality at 3.125 ppm (Ctenocephalides felis; 48 h, Rep2): 100%
- mortality at 12.5 ppm (Ctenocephalides felis; 48 h, Rep1): 100%
- mortality at 12.5 ppm (Ctenocephalides felis; 48 h, Rep2): 100%
- mortality at 50 ppm (Ctenocephalides felis; 48 h, Rep1): 100%
- mortality at 50 ppm (Ctenocephalides felis; 48 h, Rep2): 100%

Source: patent US10807992B2, “Single enantiomer antiparasitic compounds” (priority 2017, dated 2020)
